Measured values published in US8426420B2, “Heterocyclic pyrazole-carboxamidesas P2Y12 antagonists” (Sanofi, priority 2007, dated 2013).

The molecules below were run on human platelet rich plasma (assay: Inhibition of human platelet aggregation, 96-well assay). Conditions: ADP-induced aggregation, human platelet rich plasma, 96-well plates, AUC of absorbance over 20 minutes.
Type: cell-based
Procedure: Inhibition of Human Platelet Aggregation
Alternatively to a binding assay which measures a compound's ability to bind to the P2Y12 receptor, the effect on cellular function was also determined. This ability of the compound was evaluated in two platelet aggregation assays: in 96-well plates and with the “Born”-method using single cuvettes.
Whole blood was collected from healthy volunteers using 20 ml syringes containing 2 ml of ACD-A Aqua-Citrat-Dextrose-A, Fresenius). The anticoagulated whole blood was transferred into 15 ml polypropylene conical tubes (10 ml per tube). The tubes were centrifuged for 15 minutes at 150×g at RT without using the centrifuge brake. This procedure leads to a pellet of cellular components and a supernatant of platelet rich plasma (PRP). The PRP layer was collected from each tube and pooled for each donor. To avoid carry over of cellular components following centrifugation, approximately 5 ml of PRP was left in the tube. The platelet concentration was determined using a Coulter Counter.
The 15 ml tubes containing the pellet of cellular components were centrifuged again for 10 minutes at 1940×g. This pelleted out most particulate blood constituents remaining, leaving a layer of Platelet Poor Plasma (PPP). The PPP was collected for each donor. The PRP layer, previously set aside, was diluted with PPP to a final concentration of approximately 3×E8 platelets/ml with the PPP.
The human platelet aggregation assay is performed in 96-well plates using a microtiter plate reader (SpectraMax Plus 384 with SoftMax Pro software from Molecular Devices). In the plate 15 μl of test compound at 10× final concentration in NaCl is mixed with 120 μl fresh PRP and incubated for 5 minutes. Following that incubation period, 15 μl of 40 μM ADP is added to the reaction mix. This addition of ADP is sufficient to induce aggregation in the absence of an inhibitor. The plates are then transferred to the microplate reader and aggregation is measured over 20 minutes. The instrument settings include:
Absorbance at 650 nm, run time 20 minutes with readings in 1-minute intervals and 50 seconds shaking between readings all performed at 37° C.

Row | Molecule | IC50 [nM]
1 | 4-[2-({5-[2-((S)-2-Cyclobutylcarbamoyl-pyrrolidin-1-yl)-2-oxo-ethoxy]-1-phenyl-1H-pyrazole-3-carbonyl}-amino)-acetyl]-piperazine-1-carboxylic acid 2-methoxy-ethyl ester [Example 254] | 750
2 | CCOC(=O)N1CCN(C(=O)[C@H](CCC(=O)O)NC(=O)c2cc(OCC(=O)N3CCC[C@H]3C(=O)NC)n(-c3ccccc3)n2)CC1 [Example 7, 4-{(S)-4-Carboxy-2-[(5-{2-[(S)-2-(2-methylcarbamoyl)-pyrrolidin-1-yl]-2-oxo-ethoxy}-1-phenyl-1H-pyrazole-3-carbonyl)-amino]-butyryl}-piperazine-1-carboxylic acid ethyl ester] | 1460

Same assay, conditions: Homo sapiens, Platelet, 20 min

Row | Molecule | IC50 [nM]
3 | CCNC(=O)[C@@H]1CCCN1C(=O)COc1cc(C(=O)N[C@@H](CCC(=O)O)C(=O)N2CCN(C(=O)OCC)CC2)nn1-c1ccccc1 [Example 8, 4-{(S)-4-Carboxy-2-[(5-{2-[(S)-2-ethylcarbamoyl-pyrrolidin-1-yl]-2-oxo-ethoxy}-1-phenyl-1H-pyrazole-3-carbonyl)-amino]-butyryl}-piperazine-1-carboxylic acid ethyl ester] | 470
4 | CCOC(=O)N1CCN(C(=O)[C@H](CCC(=O)O)NC(=O)c2cc(OCC(=O)N3CCC[C@H]3C(=O)N3CCCC3)n(-c3ccccc3)n2)CC1 [Example 17, 4-{(S)-4-Carboxy-2-[(5-{2-oxo-2-[(S)-2-(pyrrolidine-1-carbonyl)-pyrrolidin-1-yl]-ethoxy}-1-phenyl-1H-pyrazole-3-carbonyl)-amino]-butyryl}-piperazine-1-carboxylic acid ethyl ester] | 600
5 | CCOC(=O)N1CCN(C(=O)[C@H](CCC(=O)O)NC(=O)c2cc(OCC(=O)N3CCC[C@H]3C(=O)N3CCC(F)(F)CC3)n(-c3ccccc3)n2)CC1 [Example 19, 4-{(S)-4-Carboxy-2-[(5-{2-[(S)-2-(4,4-difluoro-piperidine-1-carbonyl)-pyrrolidin-1-yl]-2-oxo-ethoxy}-1-phenyl-1H-pyrazole-3-carbonyl)-amino]-butyryl}-piperazine-1-carboxylic acid ethyl ester] | 210
6 | CCOC(=O)N1CCN(C(=O)[C@H](CCC(=O)O)NC(=O)c2cc(OCC(=O)N3CCC[C@H]3C(=O)N(C)C3CCC3)n(-c3ccccc3)n2)CC1 [Example 22, 4-{(S)-4-Carboxy-2-[(5-{2-[(S)-2-(cyclobutyl-methyl-carbamoyl)-pyrrolidin-1-yl]-2-oxo-ethoxy}-1-phenyl-1H-pyrazole-3-carbonyl)-amino]-butyryl}-piperazine-1-carboxylic acid ethyl ester] | 220
7 | CCOC(=O)N1CCN(C(=O)[C@H](CCC(=O)O)NC(=O)c2cc(OCC(=O)N3CCN(C(C)=O)CC3)n(-c3ccccc3)n2)CC1 [Example 27, 4-[(S)-2-({5-[2-(4-Acetyl-piperazin-1-yl)-2-oxo-ethoxy]-1-phenyl-1H-pyrazole-3-carbonyl}-amino)-4-carboxy-butyryl]-piperazine-1-carboxylic acid ethyl ester] | 760
8 | CCOC(=O)N1CCN(C(=O)[C@H](CCC(=O)O)NC(=O)c2cc(OCC(=O)N3CC[C@H]3C(=O)NC3CC3)n(-c3ccccc3)n2)CC1 [Example 40, 4-[(S)-4-Carboxy-2-({5-[2-((S)-2-cyclopropylcarbamoyl-azetidin-1-yl)-2-oxo-ethoxy]-1-phenyl-1H-pyrazole-3-carbonyl}-amino)-butyryl]-piperazine-1-carboxylic acid ethyl ester] | 860
9 | CCOC(=O)N1CCN(C(=O)[C@H](CC(=O)O)NC(=O)c2cc(OCC(=O)N3CCC[C@H]3C(=O)NC3CC3)n(-c3ccccc3)n2)CC1 [Example 56, 4-[(S)-3-Carboxy-2-({5-[2-((S)-2-cyclopropylcarbamoyl-pyrrolidin-1-yl)-2-oxo-ethoxy]-1-phenyl-1H-pyrazole-3-carbonyl}-amino)-propionyl]-piperazine-1-carboxylic acid ethyl ester] | 60
10 | CCOC(=O)N1CCN(C(=O)[C@H](CC(=O)O)NC(=O)c2cc(OCC(=O)N3CCC[C@H]3C(=O)NCCF)n(-c3ccccc3)n2)CC1 [Example 59, 4-{(S)-3-Carboxy-2-[(5-{2-[(S)-2-(2-fluoro-ethylcarbamoyl)-pyrrolidin-1-yl]-2-oxo-ethoxy}-1-phenyl-1H-pyrazole-3-carbonyl)-amino]-propionyl}-piperazine-1-carboxylic acid ethyl ester] | 630
11 | CCOC(=O)N1CCN(C(=O)[C@H](CCC(=O)O)NC(=O)c2cc(O[C@H](C)C(=O)N3CCC[C@H]3C(=O)N3CCCC3)n(-c3ccccc3)n2)CC1 [Example 64, 4-{(S)-4-Carboxy-2-[(5-{(R)-1-methyl-2-oxo-2-[(S)-2-(pyrrolidine-1-carbonyl)-pyrrolidin-1-yl]-ethoxy}-1-phenyl-1H-pyrazole-3-carbonyl)-amino]-butyryl}-piperazine-1-carboxylic acid ethyl ester] | 190
12 | CCOC(=O)N1CCN(C(=O)[C@H](CCC(=O)O)NC(=O)c2cc(O[C@@H](C)C(=O)N3CCC[C@H]3C(=O)NC3CC3)n(-c3ccccc3)n2)CC1 [Example 66, 4-[(S)-4-Carboxy-2-({5-[(S)-2-((S)-2-cyclopropylcarbamoyl-pyrrolidin-1-yl)-1-methyl-2-oxo-ethoxy]-1-phenyl-1H-pyrazole-3-carbonyl}-amino)-butyryl]-piperazine-1-carboxylic acid ethyl ester] | 330
13 | CCOC(=O)N1CCN(C(=O)[C@H](CCC(=O)O)NC(=O)c2cc(O[C@@H](C)C(=O)N3CCC[C@H]3C(=O)NCC3CC3)n(-c3ccccc3)n2)CC1 [Example 68, 4-[(S)-4-Carboxy-2-({5-[(S)-2-((S)-2-cyclopropylmethylcarbamoyl-pyrrolidin-1-yl)-1-methyl-2-oxo-ethoxy]-1-phenyl-1H-pyrazole-3-carbonyl}-amino)-butyryl]-piperazine-1-carboxylic acid ethyl ester] | 70
14 | CCOC(=O)N1CCN(C(=O)[C@H](CCC(=O)O)NC(=O)c2cc(O[C@@H](C)C(=O)N3CCC[C@H]3C(=O)NCC(F)(F)F)n(-c3ccccc3)n2)CC1 [Example 70, 4-[(S)-4-Carboxy-2-({5-[(S)-2-((S)-2-(2,2,2-trifluoroethylcarbamoyl)-pyrrolidin-1-yl)-1-methyl-2-oxo-ethoxy]-1-phenyl-1H-pyrazole-3-carbonyl}-amino)-butyryl]-piperazine-1-carboxylic acid ethyl ester] | 260
15 | CCOC(=O)N1CCN(C(=O)[C@H](CCNC(=O)C(F)(F)F)NC(=O)c2cc(OCC(=O)N3CCC[C@H]3C(=O)NC3CCC3)n(-c3ccccc3)n2)CC1 [Example 98, 4-[(S)-2-({5-[2-((S)-2-Cyclobutylcarbamoyl-pyrrolidin-1-yl)-2-oxo-ethoxy]-1-phenyl-1H-pyrazole-3-carbonyl}-amino)-4-(2,2,2-trifluoro-acetylamino)-butyryl]-piperazine-1-carboxylic acid ethyl ester] | 1810
16 | O=C(O)CC[C@H](NC(=O)c1cc(OCC(=O)N2CCC[C@H]2C(=O)NC2CCC2)n(-c2ccccc2)n1)C(=O)N1CCN(C(=O)c2ccccc2)CC1 [Example 104, (S)-5-(4-Benzoyl-piperazin-1-yl)-4-({5-[2-((S)-2-cyclobutylcarbamoyl-pyrrolidin-1-yl)-2-oxo-ethoxy]-1-phenyl-1H-pyrazole-3-carbonyl}-amino)-5-oxo-pentanoic acid] | 1230
17 | CCCCOC(=O)NC1CCN(C(=O)[C@H](CCC(=O)O)NC(=O)c2cc(OCC(=O)N3CCC[C@H]3C(=O)NC3CCC3)n(-c3ccccc3)n2)C1 (stereo partly drawn) [Example 108, (S)-5-(3-Butoxycarbonylamino-pyrrolidin-1-yl)-4-({5-[2-((S)-2-cyclobutylcarbamoyl-pyrrolidin-1-yl)-2-oxo-ethoxy]-1-phenyl-1H-pyrazole-3-carbonyl}-amino)-5-oxo-pentanoic acid] | 1880
18 | CCOC(=O)N1CCN(C(=O)[C@H](CCC(=O)O)NC(=O)c2cc(OCC(=O)N3CCC[C@H]3C(=O)NC3CCC3)n(-c3ccccc3)n2)[C@@H](C)C1 [Example 153, (S)-4-[(S)-4-Carboxy-2-({5-[2-((S)-2-cyclobutylcarbamoyl-pyrrolidin-1-yl)-2-oxo-ethoxy]-1-phenyl-1H-pyrazole-3-carbonyl}-amino)-butyryl]-3-methyl-piperazine-1-carboxylic acid ethyl ester] | 430
19 | O=C(O)CC[C@H](NC(=O)c1cc(OCC(=O)N2CCC[C@H]2C(=O)NC2CCC2)n(-c2ccccc2)n1)C(=O)N1CCN(C(=O)Oc2ccccc2)CC1 [Example 156, 4-[(S)-4-Carboxy-2-({5-[2-((S)-2-cyclobutylcarbamoyl-pyrrolidin-1-yl)-2-oxo-ethoxy]-1-phenyl-1H-pyrazole-3-carbonyl}-amino)-butyryl]-piperazine-1-carboxylic acid phenyl ester] | 1080
